Assay results as given in patent publication US20250026752A1, “POSITIVE ALLOSTERIC MODULATORS OF THE MUSCARINIC ACETYLCHOLINE RECEPTOR M4” (Vanderbilt University, priority 2021, published 2025).

Molecular target: T1, human mAChR M4 (Homo sapiens, UniProt P08173)
T1 construct: expressed in transfected cells; host or cells: CHO-K1 (ATCC), stably expressing hM4 and Gqi5
T1 sequence (P08173 1-479): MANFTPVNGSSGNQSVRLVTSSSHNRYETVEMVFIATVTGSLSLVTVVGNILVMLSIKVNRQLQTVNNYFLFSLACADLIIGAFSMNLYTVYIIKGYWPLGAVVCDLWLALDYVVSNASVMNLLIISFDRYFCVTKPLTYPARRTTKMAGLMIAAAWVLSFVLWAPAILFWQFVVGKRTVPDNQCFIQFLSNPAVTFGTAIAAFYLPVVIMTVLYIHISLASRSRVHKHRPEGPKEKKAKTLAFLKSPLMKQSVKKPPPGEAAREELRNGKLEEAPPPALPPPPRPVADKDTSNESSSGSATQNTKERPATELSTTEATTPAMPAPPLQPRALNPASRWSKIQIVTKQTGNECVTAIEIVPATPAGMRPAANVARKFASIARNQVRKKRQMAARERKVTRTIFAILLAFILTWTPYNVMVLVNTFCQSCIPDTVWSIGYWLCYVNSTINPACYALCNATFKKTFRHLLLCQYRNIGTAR
Assay: mAChR M4 cell-based functional assay: calcium flux (Fluo-4, FDSS), positive allosteric modulator activity on the EC20 acetylcholine response, hM4-Gqi5 CHO-K1 cells
Settings: for Emax at 30 µM: CHO-K1, human M4, % ACh maximum at 30 μM; for EC50: human M4, PAM activity on EC20 acetylcholine response, calcium flux, read-out: Human M4 EC50
Summary of the method: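 Potentiation was taken as the concentration-dependent rise in the EC20 acetylcholine calcium response, fitted by a four-parameter logistic with EC20 as baseline. Fluo-4-loaded hM4-Gqi5 CHO-K1 cells received 11-point, threefold-diluted compound before acetylcholine at 144 s; FDSS read at 1 Hz.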

Row | SMILES | Emax at 30 µM [%] | EC50 [nM]
1 | Fc1ccc2ncnc(N3CCc4ncc(N5CCc6ncccc65)cc4C3)c2c1 [Compound 319, 4-(3-(2,3-dihydro-1H-pyrrolo[3,2-b]pyridin-1-yl)-7,8-dihydro-1,6-naphthyridin-6(5H)-yl)-6-fluoroquinazoline] | 74 | 30
2 | Fc1ccc2ncnc(N3CCc4ncc(-c5cnn(C6CC6)c5)cc4C3)c2c1 [Compound 1, 4-[3-(1-cyclopropylpyrazol-4-yl)-7,8-dihydro-5H-1,6-naphthyridin-6-yl]-6-fluoro-quinazoline] | 99 | 130
3 | COc1ccc2ncnc(N3CCc4ncc(C5CC5)cc4C3)c2c1 [Compound 161, 4-(3-cyclopropyl-7,8-dihydro-5H-1,6-naphthyridin-6-yl)-6-methoxy-quinazoline] | 83 | 110
4 | Cc1ccc2ncnc(N3CCc4ncc(-c5cc(F)ccc5C)cc4C3)c2c1 [Compound 299, 4-(3-(5-fluoro-2-methylphenyl)-7,8-dihydro-1,6-naphthyridin-6(5H)-yl)-6-methylquinazoline] | 94 | 1200
5 | C[C@@H]1CN(c2ncnc3ccc(F)cc23)Cc2cc(N3CCOCC3)cnc21 [Compound 259, (R)-4-(6-(6-fluoroquinazolin-4-yl)-8-methyl-5,6,7,8-tetrahydro-1,6-naphthyridin-3-yl)morpholine] | 91 | 200
6 | Cc1nc(N2CCc3ncc(C(F)(F)F)cc3C2)c2cccc(F)c2n1 [Compound 126, 8-fluoro-2-methyl-4-[3-(trifluoromethyl)-7,8-dihydro-5H-1,6-naphthyridin-6-yl]quinazoline] | 66 | 310
7 | Cc1nc(N2Cc3cc(C(F)(F)F)cnc3CC2C)c2cc(F)ccc2n1 (stereo not drawn) [Compound 156, 6-fluoro-2-methyl-4-[7-methyl-3-(trifluoromethyl)-7,8-dihydro-5H-1,6-naphthyridin-6-yl]quinazoline] | 99 | 220
8 | Fc1ccc2ncnc(N3CCc4ncc(N5CCCn6nccc65)cc4C3)c2c1 [Compound 74, 4-[3-(6,7-dihydro-5H-pyrazolo[1,5-a]pyrimidin-4-yl)-7,8-dihydro-5H-1,6-naphthyridin-6-yl]-6-fluoro-quinazoline] | 82 | 10
9 | Fc1ccc2nc(C(F)(F)F)nc(N3CCc4ncc(C(F)(F)F)cc4C3)c2c1 [Compound 173, 6-fluoro-2-(trifluoromethyl)-4-[3-(trifluoromethyl)-7,8-dihydro-5H-1,6-naphthyridin-6-yl]quinazoline] | 50 | 170
10 | Cn1nccc1Nc1cnc2c(c1)CN(c1nc(N3CCCC3)nc3ccc(F)cc13)CC2 [Compound 210, 6-(6-fluoro-2-pyrrolidin-1-yl-quinazolin-4-yl)-N-(2-methylpyrazol-3-yl)-7,8-dihydro-5H-1,6-naphthyridin-3-amine] | 81 | 240
11 | Clc1nc(N2CCc3ncc(N4CCOc5ncccc54)cc3C2)c2cccnc2n1 [Compound 95, 1-[6-(2-chloropyrido[2,3-d]pyrimidin-4-yl)-7,8-dihydro-5H-1,6-naphthyridin-3-yl]-2,3-dihydropyrido[2,3-b][1,4]oxazine] | 78 | 420
12 | Cc1nn(C)cc1-c1cnc2c(c1)CN(c1ncnc3ccc(F)cc13)CC2 [Compound 11, 4-[3-(1,3-dimethylpyrazol-4-yl)-7,8-dihydro-5H-1,6-naphthyridin-6-yl]-6-fluoro-quinazoline] | 83 | 100
13 | Cc1ccc(F)c(Oc2cnc3c(c2)CN(c2ncnc4ccc(Cl)cc24)CC3)c1 [Compound 152, 6-chloro-4-[3-(2-fluoro-5-methyl-phenoxy)-7,8-dihydro-5H-1,6-naphthyridin-6-yl]quinazoline] | 72 | 5290
14 | FC(F)(F)c1cnc2c(c1)CN(c1ncnc3ccc(Br)cc13)CC2 [Compound 136, 6-bromo-4-[3-(trifluoromethyl)-7,8-dihydro-5H-1,6-naphthyridin-6-yl]quinazoline] | 98 | 160
15 | COc1ccc2nc(C)nc(N3CCc4ncc(-c5cnc(F)cc5C)cc4C3)c2c1 [Compound 312, 4-(3-(6-fluoro-4-methylpyridin-3-yl)-7,8-dihydro-1,6-naphthyridin-6(5H)-yl)-6-methoxy-2-methylquinazoline] | 76 | 150
16 | Cc1nc(N2CCc3ncc(N4CCN(C)C(=O)C4)cc3C2)c2cc(Cl)ccc2n1 [Compound 274, 4-(6-(6-chloro-2-methylquinazolin-4-yl)-5,6,7,8-tetrahydro-1,6-naphthyridin-3-yl)-1-methylpiperazin-2-one] | 82 | 650
17 | CC1CCN(c2cnc3c(c2)CN(c2ncnc4ccc(F)cc24)CC3)c2ccnn21 (stereo not drawn) [Compound 227, 6-fluoro-4-(3-(7-methyl-6,7-dihydropyrazolo[1,5-a]pyrimidin-4(5H)-yl)-7,8-dihydro-1,6-naphthyridin-6(5H)-yl)quinazoline] | 75 | 80
18 | Fc1cc2ncnc(N3CCc4ncc(N5CCOc6ncccc65)cc4C3)c2cc1F [Compound 98, 1-[6-(6,7-difluoroquinazolin-4-yl)-7,8-dihydro-5H-1,6-naphthyridin-3-yl]-2,3-dihydropyrido[2,3-b][1,4]oxazine] | 97 | 30
19 | CN1CCN(c2cnc3c(c2)CN(c2ncnc4ccc(F)cc24)CC3)CC1=O [Compound 272, 4-(6-(6-fluoroquinazolin-4-yl)-5,6,7,8-tetrahydro-1,6-naphthyridin-3-yl)-1-methylpiperazin-2-one] | 92 | 1150
20 | Cc1ccc2ncnc(N3CCc4ncc(-c5cnc(F)cc5C)cc4C3)c2c1 [Compound 309, 4-(3-(6-fluoro-4-methylpyridin-3-yl)-7,8-dihydro-1,6-naphthyridin-6(5H)-yl)-6-methylquinazoline] | 83 | 40
21 | Cc1nc(N2CCc3ncc(C(F)(F)F)cc3C2)c2cc(Br)ccc2n1 [Compound 129, 6-bromo-2-methyl-4-[3-(trifluoromethyl)-7,8-dihydro-5H-1,6-naphthyridin-6-yl]quinazoline] | 86 | 180
22 | Cc1nc(N2CCc3ncc(N4CCCn5nccc54)cc3C2)c2cc(F)ccc2n1 [Compound 73, 4-[3-(6,7-dihydro-5H-pyrazolo[1,5-a]pyrimidin-4-yl)-7,8-dihydro-5H-1,6-naphthyridin-6-yl]-6-fluoro-2-methyl-quinazoline] | 97 | 90
23 | Fc1ccc2ncnc(N3CCc4ncc(N5CCCn6nc(C(F)(F)F)cc65)cc4C3)c2c1 [Compound 276, 6-fluoro-4-(3-(2-(trifluoromethyl)-6,7-dihydropyrazolo[1,5-a]pyrimidin-4(5H)-yl)-7,8-dihydro-1,6-naphthyridin-6(5H)-yl)quinazoline] | 96 | 320
24 | Cc1ccc(F)cc1-c1cnc2c(c1)CN(c1ncnc3ccc(Cl)cc13)CC2 [Compound 301, 6-chloro-4-(3-(5-fluoro-2-methylphenyl)-7,8-dihydro-1,6-naphthyridin-6(5H)-yl)quinazoline] | 94 | 3060
25 | Cc1ccc2nc(Nc3ccnn3C)nc(N3CCc4ncc(C(F)(F)F)cc4C3)c2c1 [Compound 181, 6-methyl-N-(2-methylpyrazol-3-yl)-4-[3-(trifluoromethyl)-7,8-dihydro-5H-1,6-naphthyridin-6-yl]quinazolin-2-amine] | 85 | 550
26 | Cc1nc(N2CCc3ncc(-c4cnc(C)s4)cc3C2)c2cc(C(F)(F)F)ccc2n1 [Compound 56, 2-methyl-5-[6-[2-methyl-6-(trifluoromethyl)quinazolin-4-yl]-7,8-dihydro-5H-1,6-naphthyridin-3-yl]thiazole] | 45 | 1930
27 | COc1cc2c(N3CCc4ncc(C(F)(F)F)cc4C3)nc(C)nc2cc1F [Compound 169, 7-fluoro-6-methoxy-2-methyl-4-[3-(trifluoromethyl)-7,8-dihydro-5H-1,6-naphthyridin-6-yl]quinazoline] | 74 | 260
28 | Cc1nc(N2CCc3ncc(N4CCN(C)C5(COC5)C4)cc3C2)c2cc(Cl)ccc2n1 [Compound 285, 8-(6-(6-chloro-2-methylquinazolin-4-yl)-5,6,7,8-tetrahydro-1,6-naphthyridin-3-yl)-5-methyl-2-oxa-5,8-diazaspiro[3.5]nonane] | 98 | 580
29 | CC1CN(c2ncnc3ccc(F)cc23)Cc2cc(NC3CCCC3)cnc21 (stereo not drawn) [Compound 233, N-cyclopentyl-6-(6-fluoroquinazolin-4-yl)-8-methyl-5,6,7,8-tetrahydro-1,6-naphthyridin-3-amine] | 84 | 410
30 | Clc1ccc2ncnc(N3CCc4ncc(-c5ccc(C6CC6)nc5)cc4C3)c2c1 [Compound 42, 6-chloro-4-[3-(6-cyclopropyl-3-pyridyl)-7,8-dihydro-5H-1,6-naphthyridin-6-yl]quinazoline] | 72 | 380
